Test results as given in patent publication US12502369B2, “Methods of cancer treatment” (K-GEN, INC., priority 2015, dated 2025).
Entries after “also recorded” stand apart in the source; their conditions may differ.

Legend:
[1] = tested on: Mino cells; experiment: Proliferation assay, PKC inhibitors in combination with PKC activators, Mino; assay type: cell-based; conditions: Sotrastaurin 0.3/1 μM, Go6983 0.1/1 μM, Go6976 0.3/1 μM, Enzastaurin 1/3 μM
Description: PKC inhibitor studies were performed as described in Example 8, 9, and 10. […] Thus, PKC activator-mediated anti-proliferation effects may be dependent on activation of PKC isoforms from the novel PKC class.

[2] = tested on: PKC isoforms and Erk1/2 in Mino and Namalwa cells; experiment: PKC inhibitor effect on K101A-mediated phosphorylation of PKCs and Erk1/2 in Mino and Namalwa cells; assay type: cell-based; conditions: for phosphorylation of PKCδ at Tyr311 induced by PKC inhibitor: inhibitor pre-treatment 30 minutes; for K101A-induced phosphorylation of PKCμ at Ser916 or Ser744/748, PKCδ at Thr505, and Erk: inhibitor pre-treatment 30 minutes (Go6983, Sotrastaurin 1 μM)
Description: Cell lysis, protein quantitation, and Western blot analysis were performed as described above in Example 2 and 4. […] Again, these PKC inhibitor studies indicate the anti-proliferative effects of the PKC activators appear to be positively associated with phosphorylation and activation of novel PKC isoforms and PKCγ, and negatively associated with the phosphorylation of PKCδ at Tyr311.

[3] = tested on: PKC isoforms and Erk1/2 in A549 cells; experiment: PKC inhibitor effect on PKC activator-mediated phosphorylation of PKCs and Erk1/2, A549; assay type: cell-based; conditions: 30 minutes; for K101A- or K102-induced phosphorylation of PKCμ at Ser916 or Ser744/748, PKCδ at Thr505, and Erk / phosphorylation of PKCδ at Tyr311 induced by PKC inhibitor: inhibitor pre-treatment 1 μM
Description: To assay if PKC inhibitors have any effects on the PKC activator-mediated phosphorylation of PKCs, A549 cells were pre-treated with DMSO, PKC inhibitors Go6983 (0.3 μM or 1 μM) or Sotrastaurin (0.3 μM or 1 μM) for 30 minutes before adding PKC activators K101A (1 μM) or K102 (0.1 μM) for another 30 minutes (FIG. 22). Cell lysis, protein quantitation, and Western blot analysis were performed as described above in Example 2 and 4. […] Phosphorylation of PKCα/β at Thr638/641 was not affected by the inhibitors (FIG. 22A). […] These PKC inhibitor studies indicate that blocking phosphorylation and activation of various isoforms of PKC is correlated with inhibition of the anti-proliferative effects of the PKC activators.
Cell lysis, protein quantitation, and Western blot analysis were performed as described above in Example 2 and 4. […] These PKC inhibitor studies also indicate that phosphorylation and activation of novel PKC isoforms and PKCμ is required for the anti-proliferative effects of the PKC activators whereas phosphorylation of PKCδ at Tyr311 is correlated with inhibition of the anti-proliferative effects of PKC activators.

[4] = tested on: A549; experiment: Proliferation assay, PKC inhibitor in combination with PKC activators, A549; assay type: cell-based; conditions: for effect on PKC activator-mediated proliferation inhibition: K101A with Go6976 (0.1 or 0.3 μM), GF109203X (0.3 or 1 μM), Enzastaurin (0.3 or 1 μM); for inhibition of K101A anti-proliferative effects: higher concentrations of inhibitor
Description: To assess if activation of different classes of PKC is required for anti-proliferation effect of PKC activators, Sotrastaurin, a PKC inhibitor targeting both conventional and novel classes of PKC, was tested in combination with PKC activators in the proliferation assays. Proliferation assay in lung cancer cell line A549 (FIG. 15) and in pancreatic cell line MiaPaCa-2 (FIG. 16) was performed as described in Example 1. […] Then, K101A or K102 was tested in 8- or 9-point titrations in the presence of DMSO or Sotrastaurin (0.1 μM or 1 μM). […] Thus, PKC activator-mediated anti-proliferation effects are dependent on activation of PKC isoforms from conventional, or novel, or both classes of PKCs.
To assess if PKC activation is required for anti-proliferation effect of PKC activators in cancer cell lines that are sensitive to these activators, a pan-PKC inhibitor Go6983, targeting classes of PKCs (conventional, novel, atypical, and PKCμ), was tested in combination with PKC activators in the proliferation assays. Proliferation assay in lung cancer cell line A549 (FIG. 17) and in pancreatic cell line MiaPaCa-2 (FIG. 18) was performed as described in Example 1. […] Then, K101A or K102 was tested in 8- or 9-point titrations in the presence of DMSO or Go6983 (0.1 μM or 1 μM). […] Thus, PKC activation is required for anti-proliferation effect of PKC activators.
Proliferation assay was performed as described in Example 1. […] Thus, PKC activator-mediated anti-proliferation effects appear mainly dependent on activation of novel PKC isoforms.

[5] = molecular target: PKCε (Homo sapiens, UniProt Q02156); conditions: cited from earlier work
Sequence of PKCε (Q02156 whole entry): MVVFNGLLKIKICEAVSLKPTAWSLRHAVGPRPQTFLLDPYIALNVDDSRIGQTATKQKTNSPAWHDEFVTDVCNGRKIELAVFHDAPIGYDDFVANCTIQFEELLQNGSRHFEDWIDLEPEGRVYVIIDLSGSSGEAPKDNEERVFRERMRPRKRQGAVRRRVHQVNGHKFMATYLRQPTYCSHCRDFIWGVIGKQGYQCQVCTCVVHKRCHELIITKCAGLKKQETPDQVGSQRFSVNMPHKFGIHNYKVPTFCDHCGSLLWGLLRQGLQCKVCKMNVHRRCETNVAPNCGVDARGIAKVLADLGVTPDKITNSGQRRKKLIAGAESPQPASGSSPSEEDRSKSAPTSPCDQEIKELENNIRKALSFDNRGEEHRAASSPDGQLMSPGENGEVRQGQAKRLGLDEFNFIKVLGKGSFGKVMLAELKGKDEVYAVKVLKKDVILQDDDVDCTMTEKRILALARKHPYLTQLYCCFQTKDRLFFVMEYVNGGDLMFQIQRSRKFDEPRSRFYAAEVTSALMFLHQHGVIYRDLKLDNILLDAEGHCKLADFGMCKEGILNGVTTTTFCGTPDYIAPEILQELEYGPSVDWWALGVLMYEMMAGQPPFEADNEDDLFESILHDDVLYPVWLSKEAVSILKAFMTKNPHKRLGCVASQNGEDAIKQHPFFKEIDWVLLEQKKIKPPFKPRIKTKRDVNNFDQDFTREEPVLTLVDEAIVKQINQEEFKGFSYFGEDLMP

[6] = tested on: Namalwa cells; experiment: Proliferation assay, PKC inhibitors in combination with PKC activators, Namalwa; assay type: cell-based; conditions: Sotrastaurin 0.3/1 μM, Go6983 0.1/1 μM, Go6976 0.3/1 μM, Enzastaurin at very high concentration of 10 μM
Description: PKC inhibitor studies were performed as described in Example 15. […] Thus, PKC activator-mediated anti-proliferation effects may be dependent on activation of novel PKC isoforms.

[7] = molecular target: PKCα, β, & γ; conditions: cited from earlier work
[8] = molecular target: PKCα & β; conditions: cited from earlier work
[9] = tested on: MiaPaCa-2; experiment: Proliferation assay, PKC inhibitor in combination with PKC activators, MiaPaCa-2; assay type: cell-based; conditions: Sotrastaurin 1 μM with K101A or K102
[10] = inhibitor pre-treatment 0.3 μM or 1 μM

| Structure (SMILES) | effect on PKC activator-mediated anti-proliferation effects [1] | phosphorylation of PKCδ at Tyr311 induced by PKC inhibitor [2] | K101A- or K102-induced phosphorylation of PKCμ at Ser916 or Ser744/748, PKCδ at Thr505, and Erk [3] | phosphorylation of PKCδ at Tyr311 induced by PKC inhibitor [3] | effect on PKC activator-mediated proliferation inhibition [4] | inhibition of K101A anti-proliferative effects [4] | Ki [5] | effect on PKC activator-mediated anti-proliferation effects [6] | Ki [7] | K101A-induced phosphorylation of PKCμ at Ser916 or Ser744/748, PKCδ at Thr505, and Erk [2] | Ki [8] | K101A- and K102-induced phosphorylation of Erk1/2 [3, 10] | K101A- or K102-induced phosphorylation, P-PKCμ (Ser916), P-PKCμ (Ser744/748), P-PKCδ (Thr505) [3, 10] | Phosphorylation of PKCα/β at Thr638/641 [3, 10] | effect on PKC activator-mediated anti-proliferation effects ([4]; Sotrastaurin 1 μM with K101A or K102) | effect on PKC activator-mediated anti-proliferation effects [9] |
| --- | --- | --- | --- | --- | --- | --- | --- | --- | --- | --- | --- | --- | --- | --- | --- | --- |
| Cn1cc(C2=C(c3cn(C4CCN(Cc5ccccn5)CC4)c4ccccc34)C(=O)NC2=O)c2ccccc21 [Enzastaurin] | partially blocked | induced moderate phosphorylation | minimal effects | induced phosphorylation of PKCδ at Tyr311 partially | minimal effects; also recorded: weak inhibition | Slight inhibition | 110 nM | marginally blocked | – | – | – | – | – | – | – | – |
| CN(C)CCCn1cc(C2=C(c3c[nH]c4ccccc34)C(=O)NC2=O)c2ccccc21 [GF109203X] | – | – | minimal effects | induced phosphorylation of PKCδ at Tyr311 partially | minimal effects; also recorded: weak inhibition | Slight inhibition | – | – | ~20 nM | – | – | – | – | – | – | – |
| Cn1c2ccccc2c2c3c(c4c5ccccc5n(CCC#N)c4c21)CNC3=O [Go6976] | did not block | did not induce phosphorylation | minimal effects | induced no phosphorylation of PKCδ at Tyr311 | minimal effects; also recorded: no inhibition | – | – | did not block | – | little effect | 2.3 to 6.2 nM | – | – | – | – | – |
| CN1CCN(c2nc(C3=C(c4c[nH]c5ccccc45)C(=O)NC3=O)c3ccccc3n2)CC1 [Sotrastaurin] | dose-dependently blocked | induced robust phosphorylation | completely abolished | induced phosphorylation of PKCδ at Tyr311 | – | – | – | dose-dependently blocked | – | completely abolished | – | blocked dose-dependently | blocked in a dose-dependent manner | not affected | completely abolished | completely abolished |
